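These data come from cells grown in 96-well plates and exposed to compound for 48 hours at five concentrations. GI50 marks 50% less growth.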 Calls of active or inactive are those of the source. No stated cut-off is given here; in the data, active = GI50 up to about 1.1 µM and inactive = higher.
What was measured:
Assay in all cases: growth of human tumour cells (NCI), 48 h
A498 = system: A498
MOLT-4 = system: MOLT-4
SK-MEL-28 = system: SK-MEL-28
Hs-578T = system: Hs-578T
NCI-H23 = system: NCI-H23
SN12C = system: SN12C
HOP-92 = system: HOP-92
786-0 = system: 786-0
MDA-N = system: MDA-N
TK-10 = system: TK-10
NCI-H460 = system: NCI-H460
OVCAR-3 = system: OVCAR-3
SNB-75 = system: SNB-75
UACC-257 = system: UACC-257
PC-3 = system: PC-3
MCF7 = system: MCF7
A549 = system: A549
NCI-H522 = system: NCI-H522
SK-MEL-5 = system: SK-MEL-5

Row | SMILES | GI50 (A498) | GI50 (MOLT-4) | GI50 (SK-MEL-28) | GI50 (Hs-578T) | GI50 (NCI-H23) | GI50 (SN12C) | GI50 (HOP-92) | GI50 (786-0) | GI50 (MDA-N) | GI50 (TK-10) | GI50 (NCI-H460) | GI50 (OVCAR-3) | GI50 (SNB-75) | GI50 (UACC-257) | GI50 (PC-3) | GI50 (MCF7) | GI50 (A549) | GI50 (NCI-H522) | GI50 (SK-MEL-5)
1 | N#Cc1c(=O)c2cccnc2n2c1[nH]c1ccccc12 | 77.3 µM (inactive) | > 100 µM (inactive) | > 100 µM (inactive) | 21.6 µM (inactive) | 38.7 µM (inactive) | > 100 µM (inactive) | 22.6 µM (inactive) | 32.1 µM (inactive) | > 100 µM (inactive) | 55.5 µM (inactive) | 69.2 µM (inactive) | 78 µM (inactive) | 50.5 µM (inactive) | > 100 µM (inactive) | > 100 µM (inactive) | > 100 µM (inactive) | > 100 µM (inactive) | – | –
2 | O=C1c2cc(Cl)ccc2-n2cnnc2C2CSCN12 (configuration not stated) | 55.6 µM (inactive) | > 100 µM (inactive) | > 100 µM (inactive) | > 100 µM (inactive) | – | > 100 µM (inactive) | – | > 100 µM (inactive) | > 100 µM (inactive) | > 100 µM (inactive) | > 100 µM (inactive) | > 100 µM (inactive) | > 100 µM (inactive) | > 100 µM (inactive) | > 100 µM (inactive) | > 100 µM (inactive) | > 100 µM (inactive) | > 100 µM (inactive) | > 100 µM (inactive)
3 | CC1=C2C3=C(C)C(=O)C(C)(C)CC[C@@]3(C)[C@]2(C)CCC(C)(C)C1=O | > 100 µM (inactive) | > 100 µM (inactive) | – | > 100 µM (inactive) | > 100 µM (inactive) | > 100 µM (inactive) | – | > 100 µM (inactive) | > 100 µM (inactive) | > 100 µM (inactive) | – | > 100 µM (inactive) | > 100 µM (inactive) | > 100 µM (inactive) | > 100 µM (inactive) | > 100 µM (inactive) | > 100 µM (inactive) | > 100 µM (inactive) | > 100 µM (inactive)
4 | Cc1ncc([N+](=O)[O-])n1CCNC(=O)CCCn1ccnc1[N+](=O)[O-] | > 100 µM (inactive) | > 100 µM (inactive) | > 100 µM (inactive) | > 100 µM (inactive) | > 100 µM (inactive) | > 100 µM (inactive) | – | > 100 µM (inactive) | > 100 µM (inactive) | > 100 µM (inactive) | > 100 µM (inactive) | > 100 µM (inactive) | > 100 µM (inactive) | > 100 µM (inactive) | > 100 µM (inactive) | > 100 µM (inactive) | > 100 µM (inactive) | – | > 100 µM (inactive)
5 | CC(=O)N/N=C1/CC[C@@]2(C)C(=CC[C@H]3C4CCC(C(C)CCCC(C)C)[C@@]4(C)CCC32)C1(C)C (some centres not stated) | – | 11 µM (inactive) | > 100 µM (inactive) | > 100 µM (inactive) | 70 µM (inactive) | 51.4 µM (inactive) | > 100 µM (inactive) | 43.7 µM (inactive) | > 10 µM (inactive) | > 100 µM (inactive) | 32.1 µM (inactive) | 74.8 µM (inactive) | > 100 µM (inactive) | 36.6 µM (inactive) | 30.1 µM (inactive) | 53.7 µM (inactive) | 31.1 µM (inactive) | 58.9 µM (inactive) | 37.4 µM (inactive)
6 | CCOC(=O)Cc1nc2c(N)ncnc2n1C1OC(COC(C)=O)C(OC(C)=O)C1OC(C)=O (configuration not stated) | > 100 µM (inactive) | > 100 µM (inactive) | > 100 µM (inactive) | > 100 µM (inactive) | > 100 µM (inactive) | > 100 µM (inactive) | 83.9 µM (inactive) | > 100 µM (inactive) | > 100 µM (inactive) | > 100 µM (inactive) | > 100 µM (inactive) | > 100 µM (inactive) | – | > 100 µM (inactive) | > 100 µM (inactive) | > 100 µM (inactive) | > 100 µM (inactive) | > 100 µM (inactive) | > 100 µM (inactive)
7 | C[C@@H](c1ccccc1)N1CN(C(=O)OCc2ccccc2)C(C)(C)CC1=O | – | > 100 µM (inactive) | 56.9 µM (inactive) | > 100 µM (inactive) | > 100 µM (inactive) | > 100 µM (inactive) | > 100 µM (inactive) | > 100 µM (inactive) | > 100 µM (inactive) | > 100 µM (inactive) | > 100 µM (inactive) | > 100 µM (inactive) | > 100 µM (inactive) | 78.2 µM (inactive) | > 100 µM (inactive) | > 100 µM (inactive) | > 100 µM (inactive) | > 100 µM (inactive) | 41.7 µM (inactive)
8 | CCCCCCOc1ccc(NC2=C(Cl)C(=O)c3ncccc3C2=O)cc1 | > 10 µM (inactive) | 2.24 µM (inactive) | 1.64 µM (inactive) | 1.79 µM (inactive) | 1.97 µM (inactive) | 1.67 µM (inactive) | > 10 µM (inactive) | 2.22 µM (inactive) | 1.52 µM (inactive) | 4.31 µM (inactive) | 1.55 µM (inactive) | 2.1 µM (inactive) | 1.99 µM (inactive) | 1.9 µM (inactive) | 1.51 µM (inactive) | 1.11 µM (active) | 2.49 µM (inactive) | – | 1.54 µM (inactive)
9 | O=c1[nH]nc(Cc2ccc(Cl)cc2)n1CCO | > 100 µM (inactive) | > 100 µM (inactive) | > 100 µM (inactive) | > 100 µM (inactive) | > 100 µM (inactive) | > 100 µM (inactive) | > 100 µM (inactive) | > 100 µM (inactive) | > 100 µM (inactive) | > 100 µM (inactive) | > 100 µM (inactive) | > 100 µM (inactive) | – | > 100 µM (inactive) | > 100 µM (inactive) | > 100 µM (inactive) | > 100 µM (inactive) | > 100 µM (inactive) | > 100 µM (inactive)
10 | O=c1[nH]c(=O)n(C2OC(CO)C(O)C(F)C2O)cc1F (configuration not stated) | > 100 µM (inactive) | 0.0803 µM (active) | > 100 µM (inactive) | > 100 µM (inactive) | > 100 µM (inactive) | > 100 µM (inactive) | > 100 µM (inactive) | > 100 µM (inactive) | > 100 µM (inactive) | > 100 µM (inactive) | > 100 µM (inactive) | > 100 µM (inactive) | – | > 100 µM (inactive) | > 100 µM (inactive) | > 100 µM (inactive) | > 100 µM (inactive) | > 100 µM (inactive) | > 100 µM (inactive)
11 | COc1cc(/C=C/C(=O)OC[C@]23O[C@H]2[C@@H](OC2OC(C)C(O)C(O)C2O)C2C=CO[C@@H](OC4OC(CO)C(O)C(O)C4O)C23)ccc1O (some centres not stated) | – | > 100 µM (inactive) | > 100 µM (inactive) | > 100 µM (inactive) | > 100 µM (inactive) | > 100 µM (inactive) | > 100 µM (inactive) | > 100 µM (inactive) | > 100 µM (inactive) | > 100 µM (inactive) | > 100 µM (inactive) | > 100 µM (inactive) | > 100 µM (inactive) | – | > 100 µM (inactive) | > 100 µM (inactive) | > 100 µM (inactive) | > 100 µM (inactive) | > 100 µM (inactive)
12 | CN1C/C(=C\c2cccs2)C2=NN(C)C(c3cccs3)C2C1 (configuration not stated) | 46.7 µM (inactive) | 28.8 µM (inactive) | > 100 µM (inactive) | > 100 µM (inactive) | > 100 µM (inactive) | 95.7 µM (inactive) | 20.5 µM (inactive) | > 100 µM (inactive) | > 100 µM (inactive) | > 100 µM (inactive) | 86.5 µM (inactive) | 77.8 µM (inactive) | – | > 100 µM (inactive) | 19 µM (inactive) | 75.5 µM (inactive) | 89.3 µM (inactive) | 81.3 µM (inactive) | 58.3 µM (inactive)
13 | Cn1c(=O)sc2cc(C(=S)N3CCCCC3)ccc21 | 59.7 µM (inactive) | 27.6 µM (inactive) | 56.4 µM (inactive) | 30.8 µM (inactive) | > 100 µM (inactive) | > 100 µM (inactive) | – | > 100 µM (inactive) | > 100 µM (inactive) | > 100 µM (inactive) | > 100 µM (inactive) | 69.2 µM (inactive) | 19.9 µM (inactive) | > 100 µM (inactive) | 94.6 µM (inactive) | > 100 µM (inactive) | – | – | > 100 µM (inactive)
14 | Cc1ccc(Cl)c2c1NC(=O)/C2=N\Nc1ccccc1[N+](=O)[O-] | > 100 µM (inactive) | 37.3 µM (inactive) | > 100 µM (inactive) | 22.4 µM (inactive) | 47.6 µM (inactive) | > 100 µM (inactive) | 42.5 µM (inactive) | 28.8 µM (inactive) | 39.4 µM (inactive) | > 100 µM (inactive) | 30.4 µM (inactive) | 27.3 µM (inactive) | 54.5 µM (inactive) | 82.2 µM (inactive) | 27.7 µM (inactive) | 36.3 µM (inactive) | 83 µM (inactive) | – | –
15 | CCCCCC/C=C\CCCCCCCCCc1cccc(OC)c1O | 41.2 µM (inactive) | > 100 µM (inactive) | > 100 µM (inactive) | > 100 µM (inactive) | 86.9 µM (inactive) | > 100 µM (inactive) | – | > 100 µM (inactive) | 85.9 µM (inactive) | > 100 µM (inactive) | – | – | > 100 µM (inactive) | > 100 µM (inactive) | 63.8 µM (inactive) | 75.5 µM (inactive) | > 100 µM (inactive) | 47.1 µM (inactive) | > 100 µM (inactive)
16 | CC(=O)OCCn1c(Cc2ccc(C)cc2)nn(C(C)=O)c1=O | > 100 µM (inactive) | > 100 µM (inactive) | > 100 µM (inactive) | > 100 µM (inactive) | > 100 µM (inactive) | > 100 µM (inactive) | > 100 µM (inactive) | > 100 µM (inactive) | > 100 µM (inactive) | > 100 µM (inactive) | > 100 µM (inactive) | > 100 µM (inactive) | – | > 100 µM (inactive) | > 100 µM (inactive) | > 100 µM (inactive) | > 100 µM (inactive) | > 100 µM (inactive) | > 100 µM (inactive)

— ChEMBL document CHEMBL1201862, “PubChem BioAssay data set” (2004)
